According to article PMC10705946, “^225Ac-iPSMA-RGD for Alpha-Therapy Dual Targeting of Stromal/Tumor Cell PSMA and Integrins” (International Journal of Molecular Sciences, 2023):

Legend:
[1] = mice, day 11 after treatment
[2] = tested on: phosphorylated H2A.X in HCT116 cells; assay: DNA double-stranded breaks assay (phosphorylated H2A.X foci); assay type: cell-based, human; settings: HCT116, 2 Gy and 4 Gy
Description: For the evaluation of DNA double-stranded breaks (DSBs), the phosphorylation of the Ser-139 gamma histone variant H2A.X (γH2A.X) was used as a biomarker. HCT116 cells were grown on a glass slide after exposure of 4.5 Bq (2 Gy) and 9.0 Bq (4 Gy) of ^225Ac-iPSMA-RGD for 60 min. The anti-phospho-histone H2A.X (ser139) cl 6L16 ZooMAb (Cat. ZRB05636, Merck, Darmstadt, Germany) antibody was used as the primary antibody. […] To quantify the foci, clear and easily distinguishable dots were counted. At least 30 cells were imaged per slide, and the average number of foci per cell was calculated. Statistical analysis was performed with two-way ANOVA followed by Tukey’s multiple comparisons test using GraphPad Prism 5.0 Software. Data are shown as mean ± SEM. A p < 0.05 was considered statistically significant.

[3] = tested on: HCT116 colorectal cancer cells; assay: Cellular uptake and internalization, with blocked receptor assay; assay type: cell-based, human
Description: The ^225Ac-iPSMA-RGD uptake was performed on HCT116, C6 and PC3 cell lines, which were selected based on their variable PSMA and RGD expression according to previous research by our group and others. Each cell line was diluted to 1 × 10^6 cells with 1 mL of PBS in tubes and incubated at 37 °C with 30 μL of ^225Ac-iPSMA-RGD (20 μL, 70 Bq) for 0.5 h, 1 h and 3 h (n = 6). At each time point, the tubes were centrifuged at 3000 rpm for 5 min and rinsed twice with PBS. The measured activity in a NaI(Tl) well-type detector in the pellet, represents the uptake and internalization. To remove the ^225Ac-iPSMA-RGD at the cell membrane level, 1 mL of 0.2 M CH3COOH /0.5 M NaCl was added and the pellet was resuspended. The tubes were then centrifuged and washed with PBS twice (this activity is considered internalization).

HCT116 cells [4] = assay: Apoptosis, Muse Caspase-3/7 kit with 7-AAD, flow cytometry; assay type: cell-based, human
Description: Apoptosis in the colorectal HCT116 cancer cell line was evaluated in triplicate, using the Muse^TM Caspase-3/7 kit, Cat No. MCH100108 (Merck Millipore, Burlington, MA, USA). Briefly, cells were seeded in cell culture flasks at a density of 1 × 10^6 cells and exposed to 4.5 Bq of (2 Gy) and 9.0 Bq […] (4 Gy) of ^225Ac-iPSMA-RGD. Untreated cells were used as the control group and the positive control was prepared through nutrient starvation for 24 h. First, cells were trypsinized and suspended in 50 µL of 1X Assay Buffer BA (1 × 10^6 cells/mL). Then, 5 µL of Caspase-3/7 reagent working solution was added at 37 °C with 5% of CO2 for 30 min. After incubation, 150 µL of Caspase 7-AAD working solution was added to each tube. Finally, tubes were incubated for 5 min, protected from light, and fluorescent intensities were examined by flow cytometry using a Muse Cell Analyzer (Merck Millipore, Burlington, MA, USA) and were conducted in triplicate).

HCT116 cells [5] = assay: Proliferation capability (clonogenic) assay; assay type: cell-based, human; settings: 2 Gy and 4 Gy tested
Description: HCT116 cell line was used to evaluate the ability of a single cell to form colonies after exposure to ^225Ac-iPSMA-RGD treatment, in triplicate. We seeded 500 cells in each well (six-well plate) and treated them with 4.5 Bq/well (2 Gy), […] (4 Gy), and control (no treatment) for 1 h, dissolved in 2 mL of RPMI medium. After exposure, the treatments and medium were removed and replaced with fresh medium. The plates were incubated for 15 days. Surviving colonies were fixed for 10 min with 4% paraformaldehyde at room temperature and washed with type 1 water. Afterward, they were stained with 0.1% crystal violet for 30 min, washed with purified water, and dried. For quantification, 10% acetic acid was added for 5 min to extract the crystal violet and the absorbance was measured at 590 nm in a microplate absorbance reader (EpochTM; BioTek Instruments, Winooski, VT, USA). Statistical analysis was performed with two-way ANOVA followed by Tukey’s multiple comparisons test using GraphPad Prism 5.0 Software. Data are shown as mean ± SEM. A p < 0.05 was considered statistically significant.

HCT116 cells [6] = assay: Viability (cytotoxicity) assay at 24 h; assay type: cell-based, human; settings: 2 to 4 Gy
Description: Cytotoxic assays were performed in triplicate (n = 6) using HCT116 cells. After harvesting each cell line, 10,000 cells per well were placed in a 96-well plate and incubated at 37 °C to allow adherence. After 24 h, the culture medium was removed, and treatments (2 Gy, 4 Gy) were placed in each well. To deliver 2 and 4 Gy of radiation dose, 6 Bq/well and 12 Bq/well were added and exposed for 15 h. Then, the treatments were removed and replaced with the medium. The cytotoxicity was evaluated at 24 h by using the Cell proliferation assay (Roche Diagnostics GmbH, Mannheim, Germany). Statistical analysis was performed with two-way ANOVA followed by Tukey’s multiple comparisons test using GraphPad Prism 5.0 Software. Data are shown as mean ± SEM. A p < 0.05 was considered statistically significant.

N=C(N)NCCC[C@@H]1NC(=O)[C@H](CCCCNC(=O)CCCN2C(=O)CC(SC[C@H](NC(=O)c3ccc(NNC(=S)Nc4ccc(CC5CN(CC(=O)O)CCN(CC(=O)O)CCN(CC(=O)O)CCN(CC(=O)O)CCN(CC(=O)O)CCN5CC(=O)O)cc4)nc3)C(=O)N[C@@H](Cc3ccc4ccccc4c3)C(=O)NCCCC[C@H](NC(=O)N[C@@H](CCC(=O)O)C(=O)O)C(=O)O)C2=O)NC(=O)[C@@H](Cc2ccccc2)NC(=O)[C@H](CC(=O)O)NC(=O)CNC1=O (some centres unmarked) [^225Ac-iPSMA-RGD, ^225Ac-HEHA-HYNIC-iPSMA-RGD, metal not drawn]
Renal or hepatic function damage [1]: no damage to renal or hepatic function was detected
Serum alanine aminotransferase [1]: 70 ± 8 IU/L
Serum aspartate aminotransferase [1]: 141 ± 19 IU/L
Serum creatinine [1]: 0.215 ± 0.071 mg/dL
Average foci of phosphorylated H2A.X [2]: 19
Uptake and internalization, blocked vs unblocked cell receptors ([3]; HCT116 cells, blocking with unlabeled 1 mM iPSMA, RGD and iPSMA-RGD): statistically significant difference between blocked and unblocked cell receptors
Radiopharmaceutical uptake in colorectal cancer cells compared to C6 and PC3 cells ([3]; HCT116 vs C6 and PC3 cells): significantly higher
Increase in apoptotic/dead cells (HCT116 cells [4]; HCT116, 2 Gy): approximately 24.6%
Increase in apoptotic/dead cells (HCT116 cells [4]; HCT116, 4 Gy): ~31.2%
Reduction of proliferation capability (HCT116 cells [5]): 65%
Cell viability (HCT116 cells [6]): dose-dependent decrease in cell viability
